Test results published in ChEMBL document CHEMBL4715770, “Inhibition of Low Molecular Weight Protein Tyrosine Phosphatase by an Induced-Fit Mechanism” (J Med Chem, 2016).

Columns and labels:
[1] = biological target: T1, Tyrosine-protein phosphatase non-receptor type 9 (Homo sapiens, UniProt P43378); experiment: Inhibition of His-tagged PTP-MEG2 (unknown origin) expressed in Escherichia coli BL21 cells using para-nitrophenyl phosphate as substrate incubated for 5 to 10 mins by microplate reader based spectrophotometric analysis
T1 sequence (P43378 whole entry): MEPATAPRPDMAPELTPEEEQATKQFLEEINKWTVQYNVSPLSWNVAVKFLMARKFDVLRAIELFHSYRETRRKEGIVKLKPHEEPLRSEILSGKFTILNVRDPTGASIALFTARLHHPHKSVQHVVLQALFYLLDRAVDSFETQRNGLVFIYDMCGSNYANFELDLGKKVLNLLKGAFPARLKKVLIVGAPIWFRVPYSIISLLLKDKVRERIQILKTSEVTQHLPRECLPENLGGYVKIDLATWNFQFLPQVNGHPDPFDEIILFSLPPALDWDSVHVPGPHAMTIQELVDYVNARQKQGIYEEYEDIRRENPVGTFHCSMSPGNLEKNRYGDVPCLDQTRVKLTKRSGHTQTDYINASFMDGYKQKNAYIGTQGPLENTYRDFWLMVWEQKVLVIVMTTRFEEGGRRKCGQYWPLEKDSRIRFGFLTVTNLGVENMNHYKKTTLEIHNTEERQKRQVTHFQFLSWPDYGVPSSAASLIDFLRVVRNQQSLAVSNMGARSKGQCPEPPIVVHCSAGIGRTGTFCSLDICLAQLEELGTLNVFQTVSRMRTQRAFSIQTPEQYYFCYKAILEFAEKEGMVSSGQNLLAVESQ

[2] = biological target: Receptor-type tyrosine-protein phosphatase epsilon (Homo sapiens, UniProt P23469); experiment: Inhibition of His-tagged PTPepsilon (unknown origin) expressed in Escherichia coli BL21 cells using para-nitrophenyl phosphate as substrate incubated for 5 to 10 mins by microplate reader based spectrophotometric analysis
[3] = biological target: T2, Tyrosine-protein phosphatase non-receptor type 1 (Homo sapiens, UniProt P18031); experiment: Inhibition of His-tagged PTP1B (unknown origin) expressed in Escherichia coli BL21 cells using para-nitrophenyl phosphate as substrate incubated for 5 to 10 mins by microplate reader based spectrophotometric analysis
T2 sequence (P18031 whole entry): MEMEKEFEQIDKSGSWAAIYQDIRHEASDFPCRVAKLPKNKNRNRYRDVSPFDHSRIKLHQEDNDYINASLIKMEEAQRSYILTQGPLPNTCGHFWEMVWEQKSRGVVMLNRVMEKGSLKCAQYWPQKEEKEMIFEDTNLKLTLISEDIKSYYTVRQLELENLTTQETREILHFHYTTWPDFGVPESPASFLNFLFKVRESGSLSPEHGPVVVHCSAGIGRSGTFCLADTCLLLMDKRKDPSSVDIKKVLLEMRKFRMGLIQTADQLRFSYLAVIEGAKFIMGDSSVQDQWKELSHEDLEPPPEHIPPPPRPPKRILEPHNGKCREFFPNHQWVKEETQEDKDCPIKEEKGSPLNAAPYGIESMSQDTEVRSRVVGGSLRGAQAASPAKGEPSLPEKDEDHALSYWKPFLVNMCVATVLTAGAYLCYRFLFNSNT

[4] = biological target: Tyrosine-protein phosphatase non-receptor type 13 (Homo sapiens, UniProt Q12923); experiment: Inhibition of His-tagged FAP1 (unknown origin) expressed in Escherichia coli BL21 cells using para-nitrophenyl phosphate as substrate incubated for 5 to 10 mins by microplate reader based spectrophotometric analysis
[5] = biological target: T3, Tyrosine-protein phosphatase non-receptor type 12 (Homo sapiens, UniProt Q05209); experiment: Inhibition of His-tagged PTP-PEST (unknown origin) expressed in Escherichia coli BL21 cells using para-nitrophenyl phosphate as substrate incubated for 5 to 10 mins by microplate reader based spectrophotometric analysis
T3 sequence (Q05209 whole entry): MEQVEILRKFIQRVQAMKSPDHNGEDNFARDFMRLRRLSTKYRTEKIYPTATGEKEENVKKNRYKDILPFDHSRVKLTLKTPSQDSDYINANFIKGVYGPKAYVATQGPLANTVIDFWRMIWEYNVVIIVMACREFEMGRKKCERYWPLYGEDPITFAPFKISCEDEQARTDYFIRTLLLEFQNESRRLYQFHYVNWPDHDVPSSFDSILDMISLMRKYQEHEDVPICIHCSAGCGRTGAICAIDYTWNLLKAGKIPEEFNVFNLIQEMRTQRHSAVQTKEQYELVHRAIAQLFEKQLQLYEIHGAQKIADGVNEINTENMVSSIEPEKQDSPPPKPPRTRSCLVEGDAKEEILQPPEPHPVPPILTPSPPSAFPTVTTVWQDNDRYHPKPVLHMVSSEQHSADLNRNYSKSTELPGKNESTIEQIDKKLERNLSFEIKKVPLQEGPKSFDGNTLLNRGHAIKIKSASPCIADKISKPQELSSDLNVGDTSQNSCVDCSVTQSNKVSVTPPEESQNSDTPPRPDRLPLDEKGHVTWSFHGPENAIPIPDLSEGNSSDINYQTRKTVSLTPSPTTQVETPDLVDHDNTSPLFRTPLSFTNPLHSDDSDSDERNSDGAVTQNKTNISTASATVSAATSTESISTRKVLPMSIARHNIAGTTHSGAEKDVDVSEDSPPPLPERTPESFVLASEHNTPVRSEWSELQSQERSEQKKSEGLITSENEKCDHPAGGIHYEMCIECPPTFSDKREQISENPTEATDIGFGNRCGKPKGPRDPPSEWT

Tyrosine-protein phosphatase non-receptor type 13, sequence (Q12923 whole entry): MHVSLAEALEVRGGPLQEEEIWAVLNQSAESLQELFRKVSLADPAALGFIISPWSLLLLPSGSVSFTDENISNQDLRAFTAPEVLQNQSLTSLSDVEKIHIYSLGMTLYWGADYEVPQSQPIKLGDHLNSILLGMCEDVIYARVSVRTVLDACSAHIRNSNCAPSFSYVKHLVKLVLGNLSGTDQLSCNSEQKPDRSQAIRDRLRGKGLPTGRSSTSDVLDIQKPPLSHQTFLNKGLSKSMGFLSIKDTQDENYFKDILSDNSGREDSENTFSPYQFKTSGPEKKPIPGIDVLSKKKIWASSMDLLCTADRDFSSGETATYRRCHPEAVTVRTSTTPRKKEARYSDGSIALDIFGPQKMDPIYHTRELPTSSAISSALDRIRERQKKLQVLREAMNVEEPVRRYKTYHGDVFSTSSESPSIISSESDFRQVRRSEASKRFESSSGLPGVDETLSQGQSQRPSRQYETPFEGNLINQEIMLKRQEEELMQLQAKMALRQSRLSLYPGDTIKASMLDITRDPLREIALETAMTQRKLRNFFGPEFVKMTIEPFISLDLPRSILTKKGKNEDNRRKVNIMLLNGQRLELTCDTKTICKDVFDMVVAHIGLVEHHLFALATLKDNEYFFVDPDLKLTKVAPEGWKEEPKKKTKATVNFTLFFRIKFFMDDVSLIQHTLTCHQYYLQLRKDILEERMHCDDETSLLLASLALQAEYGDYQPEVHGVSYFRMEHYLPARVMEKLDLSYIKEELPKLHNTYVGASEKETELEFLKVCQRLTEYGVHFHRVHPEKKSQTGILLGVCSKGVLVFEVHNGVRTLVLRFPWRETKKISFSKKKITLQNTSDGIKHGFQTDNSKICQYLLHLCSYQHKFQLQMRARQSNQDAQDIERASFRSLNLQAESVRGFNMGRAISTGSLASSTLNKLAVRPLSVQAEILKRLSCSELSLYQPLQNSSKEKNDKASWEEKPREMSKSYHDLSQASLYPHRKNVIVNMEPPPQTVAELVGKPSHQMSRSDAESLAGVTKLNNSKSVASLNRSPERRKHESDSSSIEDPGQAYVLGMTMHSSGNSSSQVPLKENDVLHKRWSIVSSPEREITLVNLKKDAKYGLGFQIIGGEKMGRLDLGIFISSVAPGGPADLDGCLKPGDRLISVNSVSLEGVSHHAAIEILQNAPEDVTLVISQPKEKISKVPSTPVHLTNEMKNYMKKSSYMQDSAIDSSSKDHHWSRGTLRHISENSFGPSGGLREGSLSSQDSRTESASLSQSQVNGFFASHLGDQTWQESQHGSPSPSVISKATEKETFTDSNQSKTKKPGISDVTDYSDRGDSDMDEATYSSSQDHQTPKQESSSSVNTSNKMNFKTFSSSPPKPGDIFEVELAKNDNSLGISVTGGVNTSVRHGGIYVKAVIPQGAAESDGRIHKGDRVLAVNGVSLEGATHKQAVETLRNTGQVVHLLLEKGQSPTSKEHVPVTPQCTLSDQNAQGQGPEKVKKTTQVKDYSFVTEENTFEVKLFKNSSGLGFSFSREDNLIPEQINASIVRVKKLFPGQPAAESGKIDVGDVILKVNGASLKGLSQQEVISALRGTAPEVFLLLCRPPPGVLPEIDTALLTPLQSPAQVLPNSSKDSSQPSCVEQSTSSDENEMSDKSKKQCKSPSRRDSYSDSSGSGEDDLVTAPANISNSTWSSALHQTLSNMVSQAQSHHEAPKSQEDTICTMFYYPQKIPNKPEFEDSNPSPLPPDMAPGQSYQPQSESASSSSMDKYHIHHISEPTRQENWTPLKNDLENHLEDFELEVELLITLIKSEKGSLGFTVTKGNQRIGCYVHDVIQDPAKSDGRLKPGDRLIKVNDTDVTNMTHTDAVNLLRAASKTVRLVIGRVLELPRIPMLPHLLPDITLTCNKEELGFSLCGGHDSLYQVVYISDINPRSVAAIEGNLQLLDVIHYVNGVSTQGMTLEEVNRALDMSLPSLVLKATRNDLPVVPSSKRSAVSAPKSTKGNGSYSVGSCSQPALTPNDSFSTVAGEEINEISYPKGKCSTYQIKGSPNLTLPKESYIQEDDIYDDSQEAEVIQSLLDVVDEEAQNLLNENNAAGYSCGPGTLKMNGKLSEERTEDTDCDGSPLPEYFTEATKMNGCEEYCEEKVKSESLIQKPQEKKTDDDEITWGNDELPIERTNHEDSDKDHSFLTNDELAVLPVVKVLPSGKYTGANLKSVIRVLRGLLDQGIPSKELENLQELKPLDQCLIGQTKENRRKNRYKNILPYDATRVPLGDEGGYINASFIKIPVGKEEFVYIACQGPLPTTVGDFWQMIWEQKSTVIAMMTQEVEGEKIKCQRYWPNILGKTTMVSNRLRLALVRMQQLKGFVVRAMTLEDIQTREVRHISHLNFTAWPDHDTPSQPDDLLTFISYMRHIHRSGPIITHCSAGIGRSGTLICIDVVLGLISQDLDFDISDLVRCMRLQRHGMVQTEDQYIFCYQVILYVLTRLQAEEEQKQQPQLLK
Receptor-type tyrosine-protein phosphatase epsilon, sequence (P23469 whole entry): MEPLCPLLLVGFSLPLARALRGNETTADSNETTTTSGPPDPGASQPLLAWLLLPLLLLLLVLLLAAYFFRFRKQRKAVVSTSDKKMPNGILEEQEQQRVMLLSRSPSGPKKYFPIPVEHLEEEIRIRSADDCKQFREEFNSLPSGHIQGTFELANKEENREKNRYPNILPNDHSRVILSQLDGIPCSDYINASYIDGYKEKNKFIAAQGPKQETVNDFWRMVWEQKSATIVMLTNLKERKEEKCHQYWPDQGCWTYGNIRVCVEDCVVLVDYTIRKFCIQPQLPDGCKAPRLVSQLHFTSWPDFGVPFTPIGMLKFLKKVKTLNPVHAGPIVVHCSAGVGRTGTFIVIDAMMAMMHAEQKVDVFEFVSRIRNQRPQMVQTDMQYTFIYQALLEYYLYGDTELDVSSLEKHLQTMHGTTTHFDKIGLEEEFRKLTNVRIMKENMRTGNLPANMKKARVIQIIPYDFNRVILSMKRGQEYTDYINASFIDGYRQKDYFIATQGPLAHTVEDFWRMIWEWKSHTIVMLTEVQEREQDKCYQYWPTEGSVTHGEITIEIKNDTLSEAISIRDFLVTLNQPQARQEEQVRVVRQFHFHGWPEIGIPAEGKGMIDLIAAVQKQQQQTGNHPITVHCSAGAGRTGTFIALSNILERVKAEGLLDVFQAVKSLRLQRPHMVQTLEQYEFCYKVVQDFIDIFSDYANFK

| SMILES | IC50 [1] [µM] | IC50 [2] [µM] | IC50 [3] [µM] | IC50 [4] [µM] | IC50 [5] [µM] |
| --- | --- | --- | --- | --- | --- |
| O=C(Nc1cc(C(F)(F)F)cc(C(F)(F)F)c1)C(c1ccccc1)S(=O)(=O)O (stereo not given) | > 200 | > 200 | > 200 | 76 | 66.9 |
| O=C(Nc1ccc(-n2ccnc2)cc1)C(c1ccccc1)S(=O)(=O)O (stereo not given) | > 100 | > 100 | > 100 | > 100 | > 100 |
| O=C(Nc1ccc(OCc2ccccc2)c(Cl)c1)C(c1ccccc1)S(=O)(=O)O (stereo not given) | > 200 | > 200 |  |  |  |
| Cc1c(Br)cc(NC(=O)C(c2ccccc2)S(=O)(=O)O)cc1Br (stereo not given) |  | > 200 | > 200 | > 200 |  |
| O=C(Nc1nc2ccc([N+](=O)[O-])cc2s1)C(c1ccccc1)S(=O)(=O)O (stereo not given) | > 100 | > 100 | > 100 | > 100 | > 100 |
